Measured values reported in patent publication US9981909B2 (Janssen Pharmaceutica NV, priority 2008, dated 2018).
Structures can show the parent of a compound that is named as a salt.

target: rat 5-HT7 receptor (Rattus norvegicus (Rat), UniProt P32305); assay: r5-HT7 binding assay, competitive radioligand binding with [3H]5-CT; conditions: rat 5-HT7 receptor, HEK-293 membranes
Experimental: Receptor binding was performed using membrane fractions prepared from the HEK-293 cell line recombinantly expressing rat 5-HT7 receptors (NCBI accession NM_022938). Compound affinity for the rat 5-HT7 receptor subtype was evaluated by competitive radioligand binding assays using 5-carboxamido[^3H]tryptamine ([^3H]5-CT) (Amersham Biosciences, cat. 90000403) detection. HitHunter™ cAMP assays are in-vitro based competitive immunoassays. The assay was performed on the HEK-293 cell line stably transfected with r5-HT7 receptor. Cells were pre-incubated with test compounds for 10 minutes. For antagonist testing, the cells were then challenged with 100 nM 5-CT for 20 minutes. Cells were then lysed and cAMP measured according to manufacturers protocol (Amersham, cat. NET791250UC) or [^3H]mesulergine (Amersham, cat. TRK1041). The assay was performed on membranes prepared from HEK-293 cells stably transfected with h5-HT6. Following centrifugation, membranes were resuspended and incubated for 60 min at room temperature with 1.7 nM [^3H]LSD in the presence of increasing concentration of test compounds. Nonspecific binding was defined in the presence of 10 μM clozapine (Tocris, cat. TRK1068). Homogenized HEK-293 membranes expressing the human SERT were incubated in 50 mM Tris-HCl (pH 7.5), 120 mM NaCl, 5 mM KCl with [^3H]-citalopram (3 nM) with or without test compounds. Nonspecific binding was determined in the presence of 10 μM fluoxetine. Radioactivity readouts and Ki values were performed as previously described for r5-HT7. […] Compounds were assayed in their free form or as salts, as indicated in the Examples section above.

rat 5-HT7 receptor, sequence (P32305 1-435): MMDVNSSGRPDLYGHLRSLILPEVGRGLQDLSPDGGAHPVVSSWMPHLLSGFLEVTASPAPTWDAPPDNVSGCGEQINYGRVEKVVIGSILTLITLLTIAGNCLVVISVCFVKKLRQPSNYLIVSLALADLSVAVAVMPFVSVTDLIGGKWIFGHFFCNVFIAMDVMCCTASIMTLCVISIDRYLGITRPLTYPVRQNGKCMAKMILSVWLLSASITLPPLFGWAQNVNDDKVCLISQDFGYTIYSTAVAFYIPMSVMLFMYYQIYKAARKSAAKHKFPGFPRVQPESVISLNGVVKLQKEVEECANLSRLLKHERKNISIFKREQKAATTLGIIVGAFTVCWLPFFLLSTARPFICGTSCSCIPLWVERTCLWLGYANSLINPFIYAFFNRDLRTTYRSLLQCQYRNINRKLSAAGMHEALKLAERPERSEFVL

SMILES | Ki
Fc1ccc(COc2ccc(Cl)cc2OC2CNC2)c(F)c1 [Example 57, 3-[5-Chloro-2-(2,4-difluoro-benzyloxy)-phenoxy]-azetidine] | 42 nM
Clc1cccc(COc2ccc(Cl)cc2O[C@@H]2CCNC2)c1 [Example 58, (R)-3-[5-Chloro-2-(3-chloro-benzyloxy)-phenoxy]-pyrrolidine] | 120 nM
Clc1ccc(OCc2ccccc2Cl)c(O[C@@H]2CCNC2)c1 [Example 60, (R)-3-[5-Chloro-2-(2-chloro-benzyloxy)-phenoxy]-pyrrolidine] | 250 nM
CN1CC[C@@H](Oc2cc(Cl)ccc2OCc2ccccc2Cl)C1 [Example 61, (R)-3-[5-Chloro-2-(2-chloro-benzyloxy)-phenoxy]-1-methyl-pyrrolidine] | 36 nM
Clc1ccc(OCc2ccccc2)c(OC2CCNCC2)c1 [Example 62, 4-(2-Benzyloxy-5-chloro-phenoxy)-piperidine] | 34 nM
Clc1ccc(OC2CCCC2)c(OC2CNC2)c1 [Example 72, 3-(5-Chloro-2-cyclopentyloxy-phenoxy)-azetidine trifluoroacetate] | 270 nM
Brc1ccc(OCC2CCCCC2)c(OC2CNC2)c1 [Example 74, 3-(5-Bromo-2-cyclohexylmethoxy-phenoxy)-azetidine] | 11 nM
O=C(O)c1cc(COc2ccc(Cl)cc2OC2CNC2)oc1C(F)(F)F [Example 75, 5-[2-(Azetidin-3-yloxy)-4-chloro-phenoxymethyl]-2-trifluoromethyl-furan-3-carboxylic acid trifluoroacetate] | 9000 nM
CCOC(=O)c1cc(COc2ccc(Cl)cc2OC2CNC2)oc1C(F)(F)F [Example 76, 5-[2-(Azetidin-3-yloxy)-4-chloro-phenoxymethyl]-2-trifluoromethyl-furan-3-carboxylic acid ethyl ester] | 5000 nM
Cc1cc(COc2ccc(Cl)cc2OC2CNC2)c(C(F)(F)F)o1 [Example 78, 3-[5-Chloro-2-(5-methyl-2-trifluoromethyl-furan-3-ylmethoxy)-phenoxy]-azetidine] | 710 nM
Cc1nc(C(F)(F)F)ccc1COc1ccc(Cl)cc1OC1CNC1 [Example 80, 3-[2-(Azetidin-3-yloxy)-4-chloro-phenoxymethyl]-2-methyl-6-trifluoromethyl-pyridine] | > 10000 nM
FC(F)(F)c1ccc(COc2ccc(Cl)cc2OC2CNC2)cn1 [Example 82, 5-[2-(Azetidin-3-yloxy)-4-chloro-phenoxymethyl]-2-trifluoromethyl-pyridine] | 198 nM
Clc1ccc(OCc2cnco2)c(OC2CNC2)c1 [Example 87, 5-[2-(Azetidin-3-yloxy)-4-chloro-phenoxymethyl]-oxazole] | 240 nM
Clc1ccc(OCc2nccs2)c(OC2CNC2)c1 [Example 88, 2-[2-(Azetidin-3-yloxy)-4-chloro-phenoxymethyl]-thiazole] | 681 nM
C[C@H](Oc1ccc(Cl)cc1OC1CN(C)C1)c1cccc(C(F)(F)F)c1 [Example 103, (S)-3-[5-Chloro-2-[1-(3-trifluoromethyl-phenyl)-ethoxy]-phenoxy]-1-methyl-azetidine] | 27 nM
C[C@H](Oc1ccc(Cl)cc1OC1CN(Cc2ccccc2)C1)c1cccc(C(F)(F)F)c1 [Example 104, (S)-1-Benzyl-3-[5-chloro-2-[1-(3-trifluoromethyl-phenyl)-ethoxy]-phenoxy]-azetidine] | 166 nM
CC(Oc1ccc(Cl)cc1OC1CNC1)c1cncs1 (stereo not drawn) [Example 132, 5-[1-[2-(Azetidin-3-yloxy)-4-chloro-phenoxy]-ethyl]-thiazole] | 456 nM
CC(Oc1ccc(Cl)cc1OC1CNC1)c1nccs1 (stereo not drawn) [Example 133, 2-[1-[2-(Azetidin-3-yloxy)-4-chloro-phenoxy]-ethyl]-thiazole] | 591 nM

SMILES | Ki
Cc1nc(C)c(C(C)Oc2ccc(Cl)cc2OC2CNC2)s1 (stereo not drawn) [Example 134, 5-[1-[2-(Azetidin-3-yloxy)-4-chloro-phenoxy]-ethyl]-2,4-dimethyl-thiazole] | 3830 nM
C[C@@H](Oc1ccc(Cl)cc1OC1CCCNC1)c1cccc(C(F)(F)F)c1 (stereo partly drawn) [Example 139, (R,S)-3-[5-Chloro-2-[1-((R)-3-trifluoromethyl-phenyl)-ethoxy]-phenoxy]-piperidine] | 189 nM
FCC(Oc1ccc(Cl)cc1OC1CNC1)c1ccccc1 (stereo not drawn) [Example 143, 3-[5-Chloro-2-(2-fluoro-1-phenyl-ethoxy)-phenoxy]-azetidine] | 215 nM
CCC(Oc1ccc(Cl)cc1OC1CNC1)c1ccccc1 (stereo not drawn) [Example 147, 3-[5-Chloro-2-(1-phenyl-propoxy)-phenoxy]-azetidine] | 211 nM
OCC(Oc1ccc(Cl)cc1OC1CNC1)c1ccccc1 (stereo not drawn) [Example 148, 2-[2-(Azetidin-3-yloxy)-4-chloro-phenoxy]-2-phenyl-ethanol] | 2000 nM
O=C(O)C(Oc1ccc(Cl)cc1OC1CNC1)c1ccccc1 (stereo not drawn) [Example 149, [2-(Azetidin-3-yloxy)-4-chloro-phenoxy]-phenyl-acetic acid hydrochloride] | > 10000 nM
CC(C)(C)c1ccc2c(c1)CCC2Oc1ccc(Br)cc1OC1CNC1 (stereo not drawn) [Example 162, 3-[5-Bromo-2-(5-tert-butyl-indan-1-yloxy)-phenoxy]-azetidine] | 5000 nM
Clc1ccc(OCC2CCOC2)c(OC2CNC2)c1 (stereo not drawn) [Example 163, 3-[5-Chloro-2-(tetrahydro-furan-3-ylmethoxy)-phenoxy]-azetidine] | 766 nM
Clc1ccc(OCC2CCCO2)c(OC2CNC2)c1 (stereo not drawn) [Example 166, 3-[5-Chloro-2-(tetrahydro-furan-2-ylmethoxy)-phenoxy]-azetidine] | 1270 nM
Clc1ccc(OCC2COc3ccccc3C2)c(OC2CNC2)c1 (stereo not drawn) [Example 167, 3-[5-Chloro-2-(chroman-3-ylmethoxy)-phenoxy]-azetidine] | 167 nM
Clc1ccc(OCC2Cc3ccccc3O2)c(OC2CNC2)c1 (stereo not drawn) [Example 169, 3-[5-Chloro-2-(2,3-dihydro-benzofuran-2-ylmethoxy)-phenoxy]-azetidine] | 119 nM
Cc1cc(COc2ccc(Cl)cc2OC2CNC2)n(C)n1 [Example 170, 5-[2-(Azetidin-3-yloxy)-4-chloro-phenoxymethyl]-1,3-dimethyl-1H-pyrazole] | 5000 nM
Fc1cccc(COc2ccc(Br)cc2OC2CN(c3ccccc3)C2)c1 [Example 172, 3-[5-Bromo-2-(3-fluoro-benzyloxy)-phenoxy]-1-phenyl-azetidine] | 5000 nM
ON=C1c2ccccc2CC1Oc1ccc(Cl)cc1OC1CNC1 (stereo not drawn) [Example 179, 2-[2-(Azetidin-3-yloxy)-4-chloro-phenoxy]-indan-1-one oxime] | 360 nM
CON=C1c2ccccc2CC1Oc1ccc(Cl)cc1OC1CNC1 (stereo not drawn) [Example 180, 2-[2-(Azetidin-3-yloxy)-4-chloro-phenoxy]-indan-1-one O-methyl-oxime] | 813 nM
O=C(COc1ccc(Cl)cc1OC1CNC1)c1ccc(Cl)cc1 [Example 183, 2-[2-(Azetidin-3-yloxy)-4-chloro-phenoxy]-1-(4-chloro-phenyl)-ethanone] | 110 nM
Clc1cccc(C2(COc3ccc(Cl)cc3OC3CNC3)CCC2)c1 [Example 189, 3-[5-Chloro-2-[1-(3-chloro-phenyl)-cyclobutylmethoxy]-phenoxy]-azetidine] | 138 nM
Fc1cc(Cl)cc(OC2CNC2)c1OCc1ccccc1 [Example 197, 3-(2-Benzyloxy-5-chloro-3-fluoro-phenoxy)-azetidine] | 1420 nM
